Source: patent US20240131356A1, “COMBINATION OF INTRACELLULAR AND EXTRACELLULAR PHOTOSENSITIZERS FOR TREATMENT OF BACTERIAL INFECTION” (priority 2021, published 2024)
Entries after “also recorded” stand apart in the source; their conditions may differ. Where two headings read alike, the source gives them in different places.

Columns and labels:
S. aureus = test: Toxicity of analogs to bacteria in the XylE cultures; format: cell-based, Staphylococcus aureus; details: target dose of 30 μM
Protocol: (§1) To maximize the production of coproporphyrin III and thereby increase blue-light mediated killing of S. aureus, synthesized analogs of VU0038882 were tested. To determine the relative efficacy of each analog, a Newman strain of S. aureus, transformed with the phrt.xylE (11) reporter vector was used. This reporter allows for colorimetric assessment of intracellular heme production. To perform the assay, each individual analog was added to 3 mL of TSB+10 μg/mL chloramphenicol to reach a concentration of 30 μM, and then 700 μL of this newly made 30 μM solution was added to 1.3 mL of remaining TSB+10 μg/mL chloramphenicol media to create the 10 μM concentration. Either 10 μM or 30 μM concentrations of compounds in medium were then aliquoted into three 0.5 mL replicate tubes. Three separate 16- to 18-hour overnight subcultures from isolated colonies were back-diluted 1:100 into the tubes creating three biological replicates and were subcultured for 6 hours at 37° C. and 180 rpm. After incubation, the cells were pelleted at 16,400 g for 5 minutes and the supernatant aspirated before washing with 0.5 mL of 20 mM potassium phosphate wash buffer. After pelleting the cells again at 16,400 g for 5 minutes the wash buffer was aspirated, and the pellets were stored at −80° C. until further use.
The most consistent activity with non-furan-containing compounds was found with thiophene replacements.

[1] = tested on: hrtAB promoter (HssRS activation; CgoX activation); test: XylE colorimetric reporter assay (phrt.xylE), activation of HssRS / hrtAB expression; format: cell-based, Staphylococcus aureus strain Newman; details: for XylE activity in comparison to '8882 at 10 μM: six-hour exposure (FIG. 2A); for Specifc Activity (nMol/min*mg), data collected at 10 uM: footnote a: data collected at 10 uM
Protocol: as §1
When the cells were ready to be lysed and data collected, samples were removed from the −80° C. freezer, allowed to thaw, and resuspended in 150 μL of lysis buffer (100 mM potassium phosphate pH=8.0, 10% v/v acetone, 20 μg/mL lysostaphin) before incubation in a 37° C. bead bath for 20 minutes and then cooled for 5 minutes on ice. The samples were then centrifuged at 16,400 g and 4° C. for 30 minutes to separate the pellet from the lysate, which was then placed into a 96-well microtiter plate and kept on ice. The lysate from each sample was pipetted into 20 μL aliquots on a round-bottom or flat-bottom 96-well plate on ice. The round bottom plate was labeled for bicinchoninic acid assay (BCA) protein content analysis, and 10 μL of BCA standards was added to extra wells on the plate. Protein quantification was performed using a Pierce BCA Protein Assay Kit as per the manufacturer's instructions. While the BCA plate was in the incubator, the flat-bottom plate was prepared by thawing 1 M catechol on ice and making 100 mM potassium phosphate (pH=8.0) assay buffer. After preparing a kinetic read at 375 nm for 10 minutes with a minimal interval between reads, the catechol was diluted 1:1,000 into the assay buffer and quickly dispensed into a sterile basin, then 200 μL of the solution was pipetted into each well using a multichannel pipette. All data were exported into Excel software (Microsoft) and analyzed for specific activity of each compound and activity relative to VU0038882 controls.
After 219 analogs had been screened, the compounds with the best percent VU0038882 activity were tested again following the same protocol, but with twelve replicates per concentration with data expressed as averages ±the standard deviation (SD). Additionally, the top-performing compounds were tested using the XylE protocol with a concentration gradient to determine their half maximal effective concentration (EC50) values.
Photosensitizer-conjugated antibodies expose bacteria to reactive oxygen species (ROS) externally, but this treatment can be paired with small molecule treatment to generate ROS internally via heme biosynthesis pathway intermediates. To discover new compounds capable of activating CgoX and/or displaying less toxicity to eukaryotic cells, a medicinal chemistry campaign was initatied based on systematic alternation of the '8882 structure. Each new analog was tested for the ability to activate HssRS using the previously described XylE colorimetric assay that employs a reporter construct in which the hrtAB promoter is fused to a xylE reporter gene. […]

[2] = tested on: S. aureus USA300 luxBADCE; test: In vivo murine superficial skin (ear) infection model with PDT, bioluminescence imaging; parameters: species or system BALB/cJ mice; details: for Bacterial growth / luminescence in infected mouse ear compared to untreated animals: '8882 plus conjugated antibodies (i.p. and topical) plus 690 nm and 395 nm light, two-day regimen
Protocol: All mice were maintained in compliance with Vanderbilt's Institutional Animal Care and Use Committee regulations (protocol M1800026). To create a superficial skin wound a similar model of infection was used, as previously described (44), with modifications to relocate the area of infection to the inner epithelial layer of each ear. Eight- to 10-week-old female BALB/cJ mice were used for the S. aureus infections. Twenty-four hours prior to infection the mice were injected intraperitoneally with 20 μg/mL of both STAU-149 (anti-IsdA) and STAU-281 (anti-IsdB) in PBS. Overnight cultures of S. aureus USA300 with a chromosomally-integrated luxBADCE cassette (45) were subcultured 1:50 into TSB containing 1 mM 2,2-dipyridyl. Cultures were grown for 3.5 h to reach exponential phase of growth. Cell pellets were washed twice with ice-cold PBS with the original culture volume, centrifuged, and resuspended in 250 μL of ice-cold PBS. Approximately 5×10^7 log-phase CFUs were inoculated in 5 μL of PBS directly onto the surface of the wound present on each ear, and each mouse was again injected intraperitoneally with antibodies. Mice were placed into new sterile cages in groups of three in accordance with their experimental condition. Four hours post-infection, the mice were visualized using the IVIS spectrum (Perkin Elmer) in vivo bioluminescence imaging system, with data being collected with a 5-minute exposure time. Each mouse was then transferred to a nose cone under continuous isoflurane anesthesia and, 30 minutes prior to light exposure, the ears were exposed to 10 ∥L of the 450 ∥M '8882 and 20 μg/mL mAb cocktail in PBS containing 10% DMSO. Control mice were left untreated. The right ventrodorsal ear of each mouse was exposed to the 395-nm LED for 20.6-23.1 minutes delivering a total energy dose of 50 J/cm^2. […]
The left ventrodorsal ear of each mouse was not exposed to light during treatment. […] Luminescence was quantified for individual ears using ImageJ (FIJI) (46-48). […] Post-treatment images were again collected at 5-minute exposure times using the IVIS system and analyzed using ImageJ (FIJI). […]

[3] = tested on: S. aureus strain Newman wild-type (iron-starved); test: In vitro antimicrobial photodynamic therapy light killing assay; format: cell-based, Staphylococcus aureus; details: for Growth inhibition / reduction of CFUs/mL by small molecule plus IR700DX-conjugated anti-IsdA and anti-IsdB mAb mixture: combination with mAb mixture, 63 J/cm^2 690 nm and 50 J/cm^2 395 nm light (FIG. 3A)
Protocol: Iron-chelated bacterial cultures of the indicated strains were prepared. Antibodies of interest were added to 5 mL of iron-chelated TSB at a concentration of 2.5 ug/mL for subculture. These conditions were then separated into four-1 mL aliquots, which was comprised of replicates for both the experimental and control strains. The iron-depleted bacterial strains Newman wildtype and Newman ΔisdABΔspa (40) were then normalized to an OD600 of 1.0 and back diluted 1:100 into each condition from the overnight cultures. These subcultures were then incubated at 37° C. and 180 rpm for 30 minutes, and the bacteria were pelleted via centrifugation for 5 minutes at 16,400 g and 4° C. The pellet was washed twice in 1 mL of cold PBS before being finally resuspended in 1 mL of cold PBS.
During the subculture incubation, a measurement was taken of the power of each light to calculate the time needed to achieve a light dose of 63 J/cm^2 for the 690 nm NIR light (M680L4; Thorlabs) and 50 J/cm^2 for the 395 nm blue-LED (M395L4; Thorlabs) mounted 5 cm above the measurement probe. This measurement was taken using a photodiode and power meter (919P-003-10, 843-R; Newport) with a cutout 3×3 portion of a black 384-well microtiter plate positioned centrally over the measurement probe. The outer wells were covered with aluminum foil to ensure that the measurement taken by the probe was strictly limited to the light that entered the 0.1225 cm^2 area of the well. This approach allowed for the irradiance of the light to be calculated according to (readout (mW)/0.1225 cm^2). This value was then divided into the total light dose for each light and divided by 60 to determine the light dose in minutes. The outputs of the 690 nm and 395 nm LEDs were spatially combined using a long-pass dichroic filter (FF470-Dio; Semrock Inc.) for all experimental conditions where light was present.
The spatial intensity profile of the light output is approximately Gaussian in shape in both directions, so 25 μL of each sample was aliquoted into a 3×3 square on a black 384-well microtiter plate with the center well remaining empty, since it would receive a stronger dose than the surrounding wells. The samples were organized such that the conditions alternated wild-type and knockout in a clockwise fashion, beginning with the lower left corner well. In addition, the center well was centered under the light to equate the radial diminishment of light dose amongst the samples.
To ensure the compounds' efficacy in the full therapeutic regimen and reduce potential unknown variables, each of the compounds was tested with 395 nm or 690 nm wavelengths and with Newman WT or Newman ΔisdAB Δspa. […]

[4] = Staphylococcus aureus, NEWMAN, read-out: logEC50 (converted)

Molecule	Toxicity to bacteria (S. aureus) (S. aureus)	XylE activity in comparison to '8882 at 10 μM [1]	logEC50 ([1]; XylE protocol with a concentration gradient, Newman phrt.xylE)	EC50 ([1]; XylE protocol with a concentration gradient, Newman phrt.xylE, read-out: EC50) [µM]	Specifc Activity (nMol/min*mg), data collected at 10 uM ([1]; 6 h subculture)	Specifc Activity @ 30 μM ([1]; 30 μM compound, 6 h subculture, XylE activity normalized to protein) [nmol/min/mg]	EC50 ([1]; Staphylococcus aureus, NEWMAN) [µM]	EC50 [1, 4] [µM]	Bacterial growth / luminescence in infected mouse ear compared to untreated animals [2]	Bacterial growth / luminescence in infected mouse ear compared to untreated animals ([2]; listed as VU00038882)	Bacterial burden in infected mouse ear, antibodies plus '8882 without light ([2]; no light exposure)	Decrease of S. aureus viability compared with untreated cells, combined treatment ([3]; '8882 plus IR700DX-conjugated IsdA and IsdB antibodies plus 690 nm and 395 nm light)	Efficacy against S. aureus in PDT, small molecule alone ([3]; alone, with light)	Growth inhibition / reduction of CFUs/mL by small molecule plus IR700DX-conjugated anti-IsdA and anti-IsdB mAb mixture [3]	Growth inhibition / reduction of CFUs/mL by small molecule plus IR700DX-conjugated anti-IsdA and anti-IsdB mAb mixture ([3]; listed as VU0038882)
2-(5-(5-(Hydroxymethyl)thiophen-2-yl)-1H-pyrazol-3-yl)naphthalen-1-ol [′9952]	overtly toxic to bacteria; also recorded: exhibiting toxicity to S. aureus	highest activity at 10 μM observed to date	−5.182 ± 0.065	6.58	18.10 ± 1.80^a nMol/min*mg	–	–	–	–	–	–	–	–	–	–
Oc1c(-c2cc(-c3ccco3)[nH]n2)ccc2ccccc12 [′8882, 2-(5-(Furan-2-yl)-1H-pyrazol-3-yl)naphthalen-1-ol]	–	–	–	–	–	30.04 ± 10.24	10.5	10.5	significantly less bacterial growth	significant reduction in bacterial luminescence	a reduction in bacterial burden but did not reach the same extent as the combinatorial treatment	10,000 fold	efficacious against S. aureus	significant growth inhibition of S. aureus	greater reduction of CFUs/mL in vitro than either condition alone
Oc1c(-c2cc(-c3ccoc3)[nH]n2)ccc2ccccc12 [′9133, 2-(5-(Furan-3-yl)-1H-pyrazol-3-yl)naphthalen-1-ol]	overtly toxic to bacteria; also recorded: exhibiting toxicity to S. aureus	outperformed '8882	–	–	8.346 ± 1.304^a nMol/min*mg	–	8.17	8.17	–	–	–	–	–	–	–
